Results as given in PubChem BioAssay (NCI).
Where “and” joins values, the source holds several entries; their conditions need not be identical. Equal values may be shown once.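 Growth conditions: 96-well plates. Treatment: test compound, 48 hours, 5 concentrations. Analysis: linear interpolation between bracketing concentrations; unreached endpoints set to highest concentration. GI50 is the concentration that inhibits growth by half. At the TGI there is no net growth.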

What was measured:
Test in all cases: DTP human tumour cell line panel, 48 h
LOX IMVI melanoma = system: LOX IMVI melanoma
CAKI-1 renal = system: CAKI-1 renal
MOLT-4 leukemia = system: MOLT-4 leukemia
HCT-15 colon = system: HCT-15 colon
DU-145 prostate = system: DU-145 prostate
A549 NSCLC = system: A549 NSCLC
NCI-H460 lung = system: NCI-H460 lung
MDA-N = system: MDA-N
IGROV1 ovarian = system: IGROV1 ovarian
HT29 colon = system: HT29 colon

Row | SMILES | TGI (LOX IMVI melanoma) | TGI (CAKI-1 renal) | TGI (MOLT-4 leukemia) | TGI (HCT-15 colon) | TGI (DU-145 prostate) | TGI (A549 NSCLC) | TGI (NCI-H460 lung) | TGI (MDA-N) | TGI (IGROV1 ovarian) | TGI (HT29 colon) | GI50 (MOLT-4 leukemia) | GI50 (DU-145 prostate) | GI50 (A549 NSCLC) | GI50 (CAKI-1 renal) | GI50 (HCT-15 colon) | GI50 (NCI-H460 lung) | GI50 (IGROV1 ovarian) | GI50 (HT29 colon)
1 | O=[N+]([O-])C(=C(N1CCCCC1)N1CCCCC1)/C(Cl)=C(\Cl)Br | 44.9 µM | 26.6 µM | 57.3 µM | 54.1 µM | > 100 µM | > 100 µM | > 100 µM | > 100 µM | 90.8 µM | > 100 µM |  |  |  |  |  |  |  | 
2 | COC(=O)c1c(C)cccc1/C=C1/Cc2c(C)cccc2C1=O | > 100 µM | > 100 µM | > 100 µM | > 100 µM | > 100 µM | > 100 µM | > 100 µM | > 100 µM | > 100 µM | > 100 µM |  |  |  |  |  |  |  | 
3 | CC(C)=CCc1c2c(c3occ(-c4ccc(O)c(O)c4)c(=O)c3c1O)C=CC(C)(C)O2 | 5.22 µM | 3.02 µM | 1.43 µM | 5.35 µM | 9.32 µM | 7.6 µM | 3.21 µM | 3.38 µM | 6 µM | 3.84 µM |  |  |  |  |  |  |  | 
4 | CSC1CC2C(CC1(C)O)C2(C)C (configuration not stated) | > 100 µM | > 100 µM | > 100 µM | > 100 µM |  | > 100 µM | > 100 µM |  | > 100 µM | > 100 µM | > 100 µM |  |  |  |  |  |  | 
5 | C/C(=C\c1ccccc1)C(=O)CCN1CCOCC1 | 34.6 µM | 32.5 µM | > 62.3 µM | 32.6 µM |  | > 100 µM | > 100 µM |  | > 61.9 µM | 35.7 µM |  |  |  |  |  |  |  | 
6 | O=c1cc(/C=C/c2ccc(O)c(O)c2)oc(/C=C/c2ccc(O)c(O)c2)c1 | > 25.2 µM | 11.4 µM | 19.9 µM | 27.6 µM | 12.8 µM | 37.1 µM | 21.2 µM | 16.6 µM | 16.6 µM | 25.3 µM |  |  |  |  |  |  |  | 
7 | Nn1c(CCCCCCCCc2nnc(COc3c(O)ccc4ccccc34)n2N)nnc1COc1c(O)ccc2ccccc12 |  | > 100 µM | > 100 µM | > 100 µM | > 100 µM | > 100 µM | > 100 µM | > 100 µM | > 100 µM | > 100 µM |  |  |  |  |  |  |  | 
8 | CN(C)c1nc(=NCc2ccncc2)ss1 | 31.1 µM | > 56.3 µM | 51.1 µM | > 100 µM | > 100 µM | > 100 µM | > 100 µM | > 31.6 µM | > 100 µM | 38.5 µM |  | > 100 µM | > 100 µM |  |  |  |  | 
9 | O=C(CN1CCCCC1)CC(O)(C(F)(F)F)C(F)(F)F | > 100 µM | > 100 µM |  | > 100 µM | > 100 µM | > 100 µM | > 100 µM | > 100 µM | > 100 µM | > 100 µM |  |  |  |  |  |  |  | 
10 | CCSC1=CC(=O)c2nc3ccccc3c3ccnc1c23 | > 36.1 µM | 9.12 µM | 15.3 µM | 7.37 µM | 15.5 µM | 22.9 µM | 23.8 µM | 4 µM | 9.4 µM | 16.9 µM |  |  |  |  |  |  |  | 
11 | Cc1ccc(S(=O)(=O)Oc2cc(N)c3c(n2)CCC3)cc1 | > 100 µM | > 100 µM | > 100 µM | > 100 µM | > 100 µM | > 100 µM | > 100 µM | > 100 µM | > 100 µM | > 100 µM |  |  |  |  |  |  |  | 
12 | C=C1C(O)C2(O)OCC34C(CC5C(C)=CC(=O)C(O)C5(C)C23)OC(=O)C(OC(=O)C/C=C(\C)CCCCC)C14 (configuration not stated) |  |  |  | 0.0503 µM and 0.352 µM and 0.151 µM |  | 0.0233 µM and 0.0698 µM and 0.0535 µM |  | 0.00229 µM and 0.0179 µM |  |  | < 0.001 µM |  | 0.00137 µM | 0.0274 µM and 0.0875 µM | 0.00953 µM and 0.0434 µM | < 0.001 µM | < 0.001 µM | < 0.001 µM
13 | COc1ccc(N2C(=O)c3c4c(c5c([nH]c6ncccc65)c3C2=O)CCC(C(C)(C)C)C4)cc1 (configuration not stated) |  |  |  | > 100 µM | > 100 µM | > 100 µM | > 100 µM | > 100 µM | > 100 µM | > 100 µM |  |  |  |  |  |  |  | 
14 | CC(C)(C)NC(=O)[C@H]1CC[C@H]2[C@@H]3CC=C4NC(=O)CC[C@]4(C)[C@H]3CC[C@]12C | > 100 µM |  | > 100 µM | > 100 µM | > 100 µM | > 100 µM | > 100 µM | > 100 µM | > 100 µM | > 100 µM |  |  |  |  |  |  |  | 
15 | COc1cc(/C=C/C(=O)O)ccc1C(=O)O/C=C/c1ccccc1 | > 100 µM |  | > 100 µM | > 100 µM |  | > 100 µM | > 100 µM |  | > 100 µM | > 100 µM |  |  |  |  |  |  |  | 
16 | CC(C)(C)C1=Cc2cc3cc(C(C)(C)C)[nH]c(=O)c3cc2S(=O)(=O)N1 |  | 38.5 µM | 84.3 µM |  |  | 75.3 µM | > 100 µM |  |  | 41.4 µM |  |  |  |  |  |  |  | 
17 | COc1ccc(CC(CO)NC(=O)OCc2ccccc2)cc1Oc1ccc(CC(CO)NC(=O)OCc2ccccc2)cc1 (configuration not stated) |  | 44.5 µM | 34.5 µM | > 100 µM | 46 µM | 27.2 µM | 66.6 µM | 54.1 µM | 29.3 µM | 23.6 µM |  |  |  |  |  |  |  | 
18 | NC(CSCc1ccccc1)C(=O)O (configuration not stated) | > 100 µM | > 100 µM |  | > 100 µM | > 100 µM | > 100 µM | > 100 µM | > 100 µM | > 100 µM | > 100 µM |  |  |  |  |  |  |  | 
19 | CCOP(=O)(OCC)C1C(CO)OC(n2ccc(=O)[nH]c2=O)C1O (configuration not stated) | > 100 µM | > 100 µM |  | > 100 µM |  | > 100 µM | > 100 µM | > 100 µM | > 100 µM | > 100 µM |  |  |  |  |  |  |  | 
20 | C=C(Cl)/C(=C\Cl)CCC(Br)C(C)C (configuration not stated) | 31.4 µM | > 100 µM | > 100 µM |  | > 100 µM | > 100 µM | > 100 µM | > 100 µM | > 100 µM | > 100 µM |  |  |  |  |  |  |  | 
21 | CCN(CC)CCNc1ccc2nnn3c4ccc(OC)cc4c(=O)c1c23 | 11.1 µM | 27.6 µM | 13.1 µM | 18.7 µM |  | 19.4 µM | 13.3 µM |  | 22.9 µM | 15.9 µM |  |  |  |  |  |  |  | 
22 | OC[C@@H](O)[C@H]1NC[C@@H](O)[C@H]1O |  | > 100 µM | > 100 µM | > 100 µM | > 100 µM | > 100 µM | > 100 µM | > 100 µM | > 100 µM | > 100 µM |  |  |  |  |  |  |  | 
